Measurements reported in article PMC11249646, “Small-Molecule Disruptors of the Interaction between Calcium- and Integrin-Binding Protein 1 and Integrin αIIbβ3 as Novel Antiplatelet Agents” (ACS Pharmacology & Translational Science, 2024).
Like-named read-outs stand apart in the source and are kept apart here.

Target: T1, CIB1 and αIIb interaction (CIB1-GST : F-αIIb peptide) (Homo sapiens, UniProt Q99828)
T1 construct: made in house; host or cells: BL-21 plus RIL cells (E. coli)
T1 sequence (Q99828 1-191): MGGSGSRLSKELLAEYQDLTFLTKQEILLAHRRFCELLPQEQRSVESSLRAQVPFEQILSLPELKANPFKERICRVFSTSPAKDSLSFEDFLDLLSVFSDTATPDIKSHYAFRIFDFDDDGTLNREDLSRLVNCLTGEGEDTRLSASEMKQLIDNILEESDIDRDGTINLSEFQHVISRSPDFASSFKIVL
Test: FP assay, 1536-well qHTS format (primary and confirmatory screen)
Format: binding

[1] = qHTS primary screen hits, Table S2, negative = inhibition
[2] = qHTS primary screen hits, Table S2, negative sign = inhibitory curve
[3] = qHTS primary screen hits, Table S2, read-out: IC50
[4] = qHTS primary screen hits, Table S2, negative sign = inhibitory curve, several classes where COUNT > 1
[5] = qHTS FP screen hits, Table S2, negative = inhibition
[6] = qHTS FP screen hits, Table S2, read-out: IC50
[7] = qHTS primary screen of LOPAC/NPACT libraries, negative = inhibition
[8] = qHTS primary screen of LOPAC/NPACT libraries, negative sign = inhibitory curve
[9] = qHTS primary screen of LOPAC/NPACT libraries, read-out: IC50

| Structure (SMILES) | Efficacy (%) [1] | IC50 [3] | Efficacy (%) [7] | Curve Class [8] | IC50 [9] | also measured |
| --- | --- | --- | --- | --- | --- | --- |
| CN1CCN(c2ncc3nc(-c4cn(C)c5ccccc45)c(=O)n(Cc4cccs4)c3n2)CC1.O=C(O)C(F)(F)F [NCGC00012779-02] | -27% | 50.1 µM | – | – | – | Curve Class [4]: -2.4 |
| CN(C)c1ccc(C(=C2C=CC(=[N+](C)C)C=C2)c2ccccc2)cc1.CN(C)c1ccc(C(=C2C=CC(=[N+](C)C)C=C2)c2ccccc2)cc1.O=C(O)C(=O)O.O=C([O-])C(=O)O.O=C([O-])C(=O)O [NCGC00013058-02] | -53% | 100 µM | – | – | – | Curve Class [4]: -3 |
| Oc1ccc(Cl)cc1Sc1cc(Cl)ccc1O [NCGC00013679-06] | -30% | 50.1 µM | – | – | – | Curve Class [4]: -2.4 |
| CCc1oc2ccccc2c1C(=O)c1cc(Br)c(O)c(Br)c1 [NCGC00013895-18] | – | – | – | – | – | Efficacy (%) [5]: -51%; Curve Class (qHTS FP screen hits, Table S2, one class per curve where COUNT > 1, negative sign = inhibitory curve): -2.2; IC50 [6]: 34.9 µM |
| O=S(=O)(O)c1ccc2cc(/N=N/c3cc(S(=O)(=O)O)c4cccnc4c3O)ccc2c1 [NCGC00013917-09] | -57% | 14.3 µM | – | – | – | – |
| O=C(O)CCc1nc(-c2ccccc2)c(-c2ccccc2)o1 [NCGC00014711-11] | – | – | -11% | -2.4 | 89.1 µM | – |
| C=CCn1c(=O)c2c(nc(-c3ccc(S(=O)(=O)O)cc3)n2C)n(C)c1=O [NCGC00015008-05] | – | – | -20% | -2.2 | 25.1 µM | – |
| Nc1nc(N)c2nc(CNc3ccc(C(=O)NC(CCC(=O)O)C(=O)O)cc3)cnc2n1 (centres unmarked) [NCGC00015038-09] | -49% | 39.8 µM | – | – | – | Curve Class [2]: -2.2 |
| COc1cc(NS(C)(=O)=O)ccc1Nc1c2ccccc2nc2ccccc12.Cl [NCGC00015113-03] | – | – | -25% | -2.2 | 56.2 µM | – |
| CCN1CCc2nc(N)oc2CC1.Cl [NCGC00015131-04] | – | – | -13% | -2.4 | 39.8 µM | – |
| C[N+](C)(C)CC(=O)O.[Cl-] [NCGC00015150-04] | -24% | 56.2 µM | – | – | – | Curve Class [4]: -2.4 |
| Cl.Cl.NC(CO)C(=O)NNCc1ccc(O)c(O)c1O (centres unmarked) [NCGC00015163-09] | -50% | 50.1 µM | – | – | – | Curve Class [4]: -2.2 |
| CN1CCN(c2nc3cc(C(F)(F)F)ccc3n3cccc23)CC1.O=C(O)/C=C\C(=O)O [NCGC00015180-05] | -17% | 44.7 µM | – | – | – | Curve Class [4]: -2.2 |
| COc1ccc2c(c[n+](C)c3c4cc5c(cc4ccc23)OCO5)c1OC [NCGC00015225-07] | – | – | – | – | – | Efficacy (%) [5]: -30%; IC50 [6]: 24.6 µM |
| Clc1ccccc1C(c1ccccc1)(c1ccccc1)n1ccnc1 [NCGC00015251-09] | – | – | -14% | -2.4 | 20 µM | – |
| O=c1oc(Cl)c(Cl)c2ccccc12 [NCGC00015369-06] | – | – | -37% | -2.2 | 31.6 µM | – |
| CCCCCCCCCCC/C=C\C(C)(C)/C=C\CCCC(=O)O [NCGC00015371-07] | – | – | -30% | -2.4 | 56.2 µM | – |
| CN(N=O)c1cc(O)ccc1O [NCGC00015372-04] | -50% | 50.1 µM | – | – | – | Curve Class [2]: -2.2 |
| Cc1cc(O)c2c(c1)C(=O)c1cc(O)cc(O)c1C2=O [NCGC00015420-08] | -31% | 10 µM | – | – | – | Curve Class [2]: -1.2 |
| CCOC(=O)Nc1ccc(NCc2ccc(F)cc2)nc1N.O=C(O)/C=C\C(=O)O [NCGC00015451-04] | – | – | -53% | – | 39.8 µM | – |
| COc1ccc(NC(=O)c2ccc(-c3ccc(-c4noc(C)n4)cc3C)cc2)cc1N1CCN(C)CC1.Cl [NCGC00015476-05] | – | – | -19% | -2.2 | 17.8 µM | – |
| CC(C)(Sc1ccc(CCN(CCCCC2CCCCC2)C(=O)NC2CCCCC2)cc1)C(=O)O [NCGC00015480-08] | – | – | -28% | -1.4 | 12.6 µM | – |
| NC(Cc1cc(O)c(O)cc1O)C(=O)O (centres unmarked) [NCGC00015503-06] | – | – | – | – | – | Curve Class: -2.1; Efficacy (%): -97%; IC50 (IC50 [μM]): 35.5 µM |
| O=C1Nc2ccccc2/C1=C1/Nc2ccccc2/C1=N\O [NCGC00015545-07] | – | – | -18% | -1.2 | 3.5 µM | – |

Continued, in another order:

| Efficacy (%) [1] | IC50 [3] | Efficacy (%) [7] | Curve Class [8] | IC50 [9] | Structure (SMILES) | also measured |
| --- | --- | --- | --- | --- | --- | --- |
| -41% | 44.7 µM | – | – | – | CCCCC1(C2CCCC2)Cc2cc(OCC(=O)O)c(Cl)c(Cl)c2C1=O (stereo in doubt) [NCGC00093872-03] | Curve Class [2]: -2.2 |
| -72% | 44.7 µM | – | – | – | O=S1(=O)OC(c2ccc(O)cc2)(c2ccc(O)cc2)c2ccccc21 [NCGC00013109-03] | Curve Class [2]: -2.4 |
| -147% | 24.5 µM | – | – | – | CC[C@@]1(O)C(=O)OCc2c1cc1n(c2=O)Cc2cc3c(CN(C)C)c(O)ccc3nc2-1 [NCGC00014925-07] | – |
| – | – | -28% | -2.2 | 50.1 µM | Cn1c(=O)c2[nH]c(-c3ccc(S(=O)(=O)O)cc3)nc2n(C)c1=O [NCGC00015000-05] | – |
| – | – | -25% | -2.2 | 56.2 µM | NC1(C(=O)O)CCc2cc(C(=O)O)ccc21 (centres unmarked) [NCGC00015024-06] | – |
| -70% | 2.5 µM | – | – | – | Nc1ccc2c3c(cccc13)C(=O)NC2=O [NCGC00015035-07] | Curve Class [2]: -1.2 |
| – | – | -16% | -2.4 | 79.4 µM | O=[N+]([O-])c1cccc2c(Br)n[nH]c12 [NCGC00015143-10] | – |
| -48% | 35.5 µM | – | – | – | N#Cc1cc2nc([O-])c([O-])nc2cc1[N+](=O)[O-].[Na+].[Na+] [NCGC00015198-04] | Curve Class [2]: -2.2 |
| -44% | 39.8 µM | – | – | – | COc1ccc2c(c1)c(CC(=O)O)c(C)n2Cc1ccc(Cl)cc1 [NCGC00015217-05] | Curve Class [2]: -2.2 |
| -48% | 31.6 µM | – | – | – | O=c1[nH]c2cc([N+](=O)[O-])c([N+](=O)[O-])cc2[nH]c1=O [NCGC00015319-06] | Curve Class [2]: -2.2 |
| – | – | -13% | -2.4 | 70.8 µM | O=c1ccc2ccc(O)c(O)c2o1 [NCGC00015349-05] | – |
| -110% | 100 µM | – | – | – | CCCCCCCCCCCCCCC[C@H](O)[C@@H](N)CO [NCGC00015362-05] | Curve Class [4]: -2.3 |
| -32% | 70.8 µM | – | – | – | CNC[C@H](O)c1ccc(O)c(O)c1 [NCGC00015417-04] | Curve Class [2]: -2.4 |
| – | – | -26% | -2.2 | 50.1 µM | CCOC(=O)C1=C(C)NC(C)=C(C(=O)OC)C1c1cccc(Cl)c1Cl (centres unmarked) [NCGC00015455-08] | – |
| – | – | -14% | -2.4 | 31.6 µM | COc1ccc(Cl)cc1C(=O)NCCc1ccc(S(=O)(=O)NC(=O)NC2CCCCC2)cc1 [NCGC00015467-16] | – |
| – | – | -28% | -2.4 | 56.2 µM | CN(C)c1cc2c(Nc3ccc4c(cnn4Cc4ccccc4)c3)ncnc2cn1 [NCGC00015468-06] | – |
| -18% | 50.1 µM | – | – | – | O=C1NC(c2cccc([N+](=O)[O-])c2)=CCN1c1ccccc1O [NCGC00015571-05] | Curve Class [4]: -2.2 |
